Measurements: patent US12252701B2, “Chimeric antigen receptor T cell therapy” (KITE PHARMA, INC., priority 2020, dated 2025)
Like-named read-outs stand apart in the source and are kept apart here.

Assays:
CD19 CAR T cells = assay: CAR T cell cytokine production (Luminex) under CD19 K562, KIP-1 or CD2/3/28 stimulation; conditions: 72 h
[1] = system: phospho-STAT panel (pSTAT3/4/5), CD3+ T cells; assay: phospho-STAT induction by IL-6, MesoScale Discovery phospho-STAT panel; type: cell-based, human; conditions: CD3+ T cells; for pSTAT3: MSD signal (No stim. 689, IL-6 alone 33641); for pSTAT4: MSD signal (No stim. 1964, IL-6 alone 15405); for pSTAT5: MSD signal (No stim. 9210, IL-6 alone 17743)
Procedure: CD19 CAR-T, PBMC or CD3+ T cells (AllCells) were thawed and rested 0/N at 37° C. in R10 media. Cells were seeded at 700,000 cells/well and were either untreated or treated with 100 ng/ml IL6+drug at indicated concentrations for 20 minutes at 37° C. The cells were then washed with cold PBS and followed by 60 μl of Tris lysis buffer (provided by MSD) for 30 minutes on ice. Lysates were collected by spin down for 10 minutes at >10,000 rpm. 25 μl/well per condition was used for MesoScale Discovery (MSD) assay using the phospho-STAT panel (pSTAT3/4/5) from MesoScale Discovery following the manufacturer's protocol. pSTAT panel plates were blocked with 150 μl of blocker A solution for 1 hr at RT with shaking. Plates were washed three times with 1× Tris wash buffer. 25 μl of lysate samples were added per well, incubated 2 hr at room temperature or at 4° C. overnight. Plates were washed 3 times with 1× tris wash buffer and then 25 μl of detection antibody solution were added to each well and incubated for 1 hr at room temperature with shaking. Plates were washed and 1× read buffer added to each well and plates were read on the MSD instrument.

[2] = Clinical pharmacokinetic data converted to in vitro concentrations; conditions: human, in vivo
Source text: Given the different potencies of the JAK inhibitors and different pharmacokinetic properties for each drug, it was sought to test each drug at a relevant range of physiological concentrations based on clinical dosing and reported pharmacokinetic data from repeat dose studies. Reported Cmax values in patient sera were converted to in vitro concentrations and adjusted for reported plasma protein binding.

[3] = system: NALM6.GFP.LUC.CD19 target cells
Procedure: The percent cytotoxicity to NALM6.GFP.LUC.CD19 target cells was measured by luciferase detection at each round.
In one embodiment, a serial killing assay is a combination of cell killing and how long it takes for CAR T cells to get exhausted under repeated stimulation. In one embodiment, a serial killing assay is a surrogate measure for CAR T cell persistence in vivo.

CAR-T cells = assay: CAR-T cell expansion assay (KIP-1 or CD3/CD28 stimulation); conditions: CD3/CD28
Procedure: (§1) 96-well plates were coated with 100 μl of KIP-1 antibody per well at 1 μg/ml in PBS and plates were incubated at 4° C. overnight. CAR-T cells were thawed and were rested in ImmunoCult expansion medium and incubated overnight at 37° C. Cells were then counted and resuspended at 2 million cells/ml and seed at 200,000 cells per well in 100 μl of expansion medium with 10 ng/ml recombinant IL2. For groups treated with KIP-1, 100 μl of expansion medium were added with 2× final drug dilutions. For CD3/CD28 treated groups, 100 μl of expansion media were added with 2× final drug dilutions containing 25 μl/ml of CD3/CD28 T cell activator from StemCell Technologies. Cells were then incubated at 37° C. After 4 days, cells were counted and diluted 1 to 8-fold in expansion media and then transferred to a 24-well plate. Cell counts were repeated at day 7 and transferred to T25 flasks. On day 11, all cells were harvested and counted.

[4] = plasma protein binding, reported; cited from earlier work
in vitro = conditions: human, CAR-T cells
Procedure: as §1

[5] = 100 ng/ml IL-6 + drug 10 uM, 20 min

C[C@H]1C[C@@H]2[C@H]([C@@H](O)C[C@@]3(C)[C@H]2CC[C@]3(O)C(=O)CO)[C@@]2(C)C=CC(=O)C=C12 [Methlyprednisolone]
Suppression of cytokine production, IL-6 (IC50) (CD19 CAR T cells; CD3/CD28 stimulation): Suppress
Suppression of cytokine production, MCP-1, % inh. (CD19 CAR T cells; CD3/CD28 stimulation): >80% inh.
Suppression of cytokine production, TNFa, % inh. (CD19 CAR T cells; CD3/CD28 stimulation): >50% inh.
Suppression of cytokine production, IL-6 (IC50) (CD19 CAR T cells; K562-CD19 stimulation): Suppress
Suppression of cytokine production, MCP-1 (IC50) (CD19 CAR T cells; K562-CD19 stimulation): Suppress
Suppression of cytokine production, MIG (IC50) (CD19 CAR T cells; K562-CD19 stimulation): Suppress
Suppression of cytokine production, TNFa (IC50) (CD19 CAR T cells; K562-CD19 stimulation): Suppress
Suppression of cytokine production, IL-6, % inh. (CD19 CAR T cells; KIP-1 stimulation): 66% inh.
Suppression of cytokine production, IL-10, % inh. (CD19 CAR T cells; KIP-1 stimulation): 50% inh.
Suppression of cytokine production, MCP-1, % inh. (CD19 CAR T cells; KIP-1 stimulation): 66% inh.
Suppression of cytokine production, MIG, % inh. (CD19 CAR T cells; KIP-1 stimulation): 50% inh.
Suppression of cytokine production, TNFa, % inh. (CD19 CAR T cells; KIP-1 stimulation): 75% inh.
IC50 (CD19 CAR T cells; read-out: Suppression of cytokine production, GMCSF (IC50), CD3/CD28 stimulation): > 10 µM
IC50 (CD19 CAR T cells; read-out: Suppression of cytokine production, GMCSF (IC50), KIP-1 stimulation): > 10 µM
IC50 (CD19 CAR T cells; read-out: Suppression of cytokine production, GzB (IC50), CD3/CD28 stimulation): > 10 µM
IC50 (CD19 CAR T cells; read-out: Suppression of cytokine production, GzB (IC50), KIP-1 stimulation): > 10 µM
IC50 (CD19 CAR T cells; read-out: Suppression of cytokine production, IFNg (IC50), CD3/CD28 stimulation): > 10 µM
IC50 (CD19 CAR T cells; read-out: Suppression of cytokine production, IFNg (IC50), KIP-1 stimulation): > 10 µM
IC50 (CD19 CAR T cells; read-out: Suppression of cytokine production, IL-2Ra (IC50), CD3/CD28 stimulation): > 10 µM
IC50 (CD19 CAR T cells; read-out: Suppression of cytokine production, IL-2Ra (IC50), K562-CD19 stimulation): > 10 µM
IC50 (CD19 CAR T cells; read-out: Suppression of cytokine production, IL-2Ra (IC50), KIP-1 stimulation): > 10 µM
IC50 (CD19 CAR T cells; read-out: Suppression of cytokine production, IL-8 (IC50), CD3/CD28 stimulation): > 10 µM
IC50 (CD19 CAR T cells; read-out: Suppression of cytokine production, IL-8 (IC50), K562-CD19 stimulation): > 10 µM
IC50 (CD19 CAR T cells; read-out: Suppression of cytokine production, IL-8 (IC50), KIP-1 stimulation): > 10 µM
IC50 (CD19 CAR T cells; read-out: Suppression of cytokine production, IL-10 (IC50), CD3/CD28 stimulation): > 10 µM
IC50 (CD19 CAR T cells; read-out: Suppression of cytokine production, MIG (IC50), CD3/CD28 stimulation): > 10 µM
IC50 (CD19 CAR T cells; read-out: Suppression of cytokine production, MIP-1a (IC50), CD3/CD28 stimulation): > 10 µM
IC50 (CD19 CAR T cells; read-out: Suppression of cytokine production, MIP-1a (IC50), KIP-1 stimulation): > 10 µM
IC50 (CD19 CAR T cells; read-out: Suppression of cytokine production, MIP-1b (IC50), CD3/CD28 stimulation): > 10 µM
IC50 (CD19 CAR T cells; read-out: Suppression of cytokine production, MIP-1b (IC50), KIP-1 stimulation): > 10 µM
IC50 (CD19 CAR T cells; read-out: Suppression of cytokine production, Perforin (IC50), CD3/CD28 stimulation): > 10 µM
IC50 (CD19 CAR T cells; read-out: Suppression of cytokine production, Perforin (IC50), KIP-1 stimulation): > 10 µM

C[C@H]1C[C@@H]2[C@H]([C@@H](O)C[C@@]3(C)[C@H]2CC[C@]3(O)C(=O)CO)[C@@]2(C)C=CC(=O)C=C12 [methylprednisolone]
pSTAT3 [1, 5]: 25867
pSTAT4 [1, 5]: 11225
pSTAT5 [1, 5]: 14781
pSTAT3 ([1]; IL-6 + drug 0.125 uM): 30520
pSTAT4 ([1]; IL-6 + drug 0.125 uM): 14740
pSTAT5 ([1]; IL-6 + drug 0.125 uM): 18739
pSTAT3 ([1]; IL-6 + drug 0.5 uM): 30901
pSTAT4 ([1]; IL-6 + drug 0.5 uM): 14903
pSTAT5 ([1]; IL-6 + drug 0.5 uM): 20208
pSTAT3 ([1]; IL-6 + drug 1 uM): 28287
pSTAT4 ([1]; IL-6 + drug 1 uM): 14989
pSTAT5 ([1]; IL-6 + drug 1 uM): 18668
pSTAT3 ([1]; IL-6 + drug 5 uM): 25433
pSTAT4 ([1]; IL-6 + drug 5 uM): 11282
pSTAT5 ([1]; IL-6 + drug 5 uM): 15142
PPB adj. in Vitro concentration (free) [2]: 670 nM
PPB adj. in Vitro concentration (total) [2]: 2.56 µM
clinically relevant dose level (in vitro concentration) [2]: ~2.5 µM
Cmax ([2]; 100 mg): 960 ng/mL
Cmax (ng/ml) (free) ([2]; 100 mg): 251 ng/mL
impact on CAR-T serial killing (percent cytotoxicity) [3]: differential impacts
% viability (CAR-T cells; dose 1000 nM, day 4): 44.3%
% viability (CAR-T cells; dose 1000 nM, day 12): 62.6%
% viability (CAR-T cells; dose 5000 nM, day 4): 46.6%
% viability (CAR-T cells; dose 5000 nM, day 8): 59.1%
% viability (CAR-T cells; dose 5000 nM, day 12): 58.9%
Protein binding [4]: 78%
viability at 0 day, 1000 nM (in vitro): 75%
viability at 0 day, 5000 nM (in vitro): 75%
viability at 4 day, 1000 nM (in vitro): 58.1%
viability at 4 day, 5000 nM (in vitro): 49.4%
viability at 8 day, 1000 nM (in vitro): 69.1%
viability at 8 day, 5000 nM (in vitro): 66%
viability at 12 day, 1000 nM (in vitro): 76.3%
viability at 12 day, 5000 nM (in vitro): 71.9%
